“Also recorded” adds a separate entry of the source.
Legend:
[1] = molecular target: substrate-free CYP46A1 (Homo sapiens, UniProt Q9Y6A2); assay: Spectral titrations of substrate-free CYP46A1; assay type: binding; settings: for spectral response type, substrate-free CYP46A1: P450 difference spectrum
[2] = Cholesterol binding to HPCD; settings: read-out: Kd of cholesterol for HPCD; 50 mM KPi buffer (pH 7.2) containing 100 mM NaCl at 24 °C
[3] = molecular target: CYP46A1 (Homo sapiens, UniProt Q9Y6A2); assay: Stopped-flow kinetics of compound binding to and release from CYP46A1; settings: for mechanism of binding to substrate-free CYP46A1: stopped-flow experiments; for spectral binding at 15–30 μM, stopped-flow: substrate-free CYP46A1, 15–30 μM compound
[4] = molecular target: T1, purified recombinant CYP46A1 (Homo sapiens, UniProt Q9Y6A2); assay: CYP46A1 enzyme assay; assay type: biochemical; settings: for shape of concentration dependence curve of CYP46A1 activity / CYP46A1 inhibition at the concentrations tested: 0–100 μM compound; for effect of co-incubation with L-Glu on CYP46A1 activation / maximal activation in the presence of L-Glu (fold): 100 μM L-Glu; for effect of co-incubation with L-Glu on CYP46A1 activation / effect of co-incubation with (S)-EFV on CYP46A1 activation / maximal activation in the presence of L-Glu (fold): 20 μM compound; for effect of co-incubation with (S)-EFV on CYP46A1 activation: 20 μM (S)-EFV; for CYP46A1 inhibition at the 60–100 μM concentrations: 60–100 μM compound
[5] = molecular target: cholesterol-bound CYP46A1 (Homo sapiens, UniProt Q9Y6A2); assay: Spectral titrations of cholesterol-bound CYP46A1; assay type: binding; settings: 20 μM cholesterol; for spectral response fit, cholesterol-bound CYP46A1 / spectral response type, cholesterol-bound CYP46A1: 18 °C
[6] = molecular target: CYP46A1 allosteric sites (EFV binding site, Glu binding site) (Homo sapiens, UniProt Q9Y6A2); assay: Mapping of the allosteric site; assay type: biochemical; settings: for allosteric site of binding: from co-incubations and mutants; for P450 activation with replacements within the Glu-binding site: CYP46A1 mutants K358A, F416A and Y427A; for P450 activation with replacements within the Glu-binding site / P450 activation with replacements within the EFV-binding site: 20 μM compound; for P450 activation with replacements within the EFV-binding site: CYP46A1 mutants R415A and F405A
[7] = cited from earlier work
[8] = plasma of EFV-treated subjects; cited from earlier work
[9] = tested on: CYP46A1 in the brain; settings: 0.32 (mg/da)/kg body dose, mice; cited from earlier work
[10] = molecular target: T1, purified recombinant CYP46A1; settings: previous study; cited from earlier work
[11] = tested on: protein (albumin); settings: cited from earlier work
[12] = within 1 h of an intraperitoneal administration; cited from earlier work
[13] = concentrations mimicking the 600 mg/day EFV dose; cited from earlier work

Row | Structure (SMILES) | fit of spectral titration curve, substrate-free CYP46A1 [1] | spectral response type, substrate-free CYP46A1 ([1]; 18 °C) | CYP46A1 activation compared with that with (S)-EFV [4] | shape of concentration dependence curve of CYP46A1 activity [4] | effect of co-incubation with L-Glu on CYP46A1 activation [4] | fit of spectral titration curve, cholesterol-bound CYP46A1 [5] | spectral response fit, cholesterol-bound CYP46A1 [5] | spectral response type, cholesterol-bound CYP46A1 [5] | allosteric site of binding [6] | CYP46A1 inhibition at the 60–100 μM concentrations [4] | also measured
1 | CC(C)CCC[C@@H](C)[C@H]1CC[C@H]2[C@@H]3CC=C4C[C@@H](O)CC[C@]4(C)[C@H]3CC[C@]12C [cholesterol] |  |  |  |  |  |  |  |  |  |  | Kd ([1]; Kd for substrate-free CYP46A1 (M), cholesterol, from an apparent Kd of 80 nM [20] after the correction for HPCD binding): 9e-09 M; Kd [2]: 540 µM; calculated kon higher than that for rac-3 [3]: 1.9 fold; calculated kon lower than that for (S)-EFV [3]: 1.7 fold; koff ([3]; read-out: experimental koff (s^–1)): 0.012 ± 0.002 s⁻¹
2 | O=C1Cc2ccc(Cl)cc2C(C#CC2CC2)(C(F)(F)F)O1 (racemic) [rac-5] | sigmoidal | type 1 | lower | sigmoidal-like | synergistically activated |  |  | did not seem to elicit a quantifiable spectral response; also recorded: no spectral response | both EFV- and Glu-binding sites |  | spectral response fit, substrate-free CYP46A1 ([1]; 18 °C): S; CYP46A1 inhibition at the concentrations tested [4]: did not inhibit
3 | CC1Nc2ccc(Cl)cc2C(C#CC2CC2)(C(F)(F)F)O1 (racemic) [rac-7] | hyperbolic | type 1 | lower | bell-shaped | abolished |  |  | did not seem to elicit a quantifiable spectral response; also recorded: no spectral response | mainly with the allosteric site for Glu |  | effect of co-incubation with (S)-EFV on CYP46A1 activation [4]: synergistic CYP46A1 activation; maximal activation in the presence of L-Glu (fold) [4]: abolished; P450 activation with replacements within the Glu-binding site [6]: largely reduced or abolished; P450 activation with replacements within the EFV-binding site [6]: not significantly affected
4 | O=C1Nc2cc(O)c(Cl)cc2[C@@](C#CC2CC2)(C(F)(F)F)O1 [7-hydroxyEFV, (S)-7-hydroxyEFV] |  |  |  |  |  |  |  |  |  |  | cerebrospinal fluid level [7]: 0.63 ng/mL; plasma level [8]: 8.8 to 225 ng/mL
5 | O=C1Nc2c(O)cc(Cl)cc2C(C#CC2CC2)(C(F)(F)F)O1 (racemic) [rac-1] | hyperbolic | type 2 |  | bell-shaped |  | sigmoidal |  | reverse type 1-like |  | did not inhibit | 
6 | O=C1Nc2ccc(Cl)cc2[C@@](C#CC2CC2)(C(F)(F)F)O1 [(S)-EFV, (S)-6-chloro-4-(cyclopropylethynyl)-4-(trifluoromethyl)-1,4-dihydro-2H-benzo[d][1,3]oxazin-2-one, reference compound] | hyperbolic | type 2 |  | bell-shaped |  | sigmoidal | S | reverse type 1 |  | inhibitory | effect on CYP46A1 in the brain [9]: inhibited; cerebrospinal fluid level [7]: 13.9 to 19.5 ng/mL; CYP46A1 inhibition at 100 μM [10]: almost completely inhibited; protein (albumin)-bound in the blood [11]: ≥ 99.6%; mechanism of binding to substrate-free CYP46A1 [3]: conformational-selection; spectral binding at 15–30 μM, stopped-flow [3]: measurable; brain levels exceeding those in the plasma [12]: 4.6 times; plasma level [8]: 2170 to 3350 ng/mL
7 | FC(F)(F)[C@@]1(C#CC2CC2)OCNc2ccc(Cl)cc21 [(S)-6] | hyperbolic | type 1 | lower | bell-shaped | abolished |  |  | did not seem to elicit a quantifiable spectral response; also recorded: no spectral response | mainly with the allosteric site for Glu |  | CYP46A1 inhibition at the concentrations tested [4]: did not inhibit; effect of co-incubation with (S)-EFV on CYP46A1 activation [4]: synergistic CYP46A1 activation; maximal activation in the presence of L-Glu (fold) [4]: abolished; P450 activation with replacements within the Glu-binding site [6]: largely reduced or abolished; P450 activation with replacements within the EFV-binding site [6]: not significantly affected
8 | O=C1Nc2c(O)cc(Cl)cc2[C@@](C#CC2CC2)(C(F)(F)F)O1 [(S)-1, (S)-8-hydroxyEFV] | hyperbolic | type 2 |  | bell-shaped | synergistically activated | sigmoidal | S | reverse type 1-like | both EFV- and Glu-binding sites | did not inhibit | cerebrospinal fluid level [7]: 3.1 to 5.3 ng/mL; cell damage or death in cell culture [13]: induce cell damage or death; plasma level [8]: 315 to 2160 ng/mL
9 | O=C1Nc2cc(O)c(Cl)cc2C(C#CC2CC2)(C(F)(F)F)O1 (racemic) [rac-2] | hyperbolic | type 2 |  | bell-shaped | synergistically activated | sigmoidal | S | reverse type 1-like | both EFV- and Glu-binding sites | did not inhibit | 

Further lines, with some results ahead:

Row | fit of spectral titration curve, substrate-free CYP46A1 [1] | spectral response type, substrate-free CYP46A1 ([1]; 18 °C) | CYP46A1 activation compared with that with (S)-EFV [4] | shape of concentration dependence curve of CYP46A1 activity [4] | effect of co-incubation with L-Glu on CYP46A1 activation [4] | fit of spectral titration curve, cholesterol-bound CYP46A1 [5] | spectral response fit, cholesterol-bound CYP46A1 [5] | spectral response type, cholesterol-bound CYP46A1 [5] | allosteric site of binding [6] | CYP46A1 inhibition at the 60–100 μM concentrations [4] | Structure (SMILES) | also measured
10 | hyperbolic | type 1 | similar | bell-shaped | synergistically activated | sigmoidal | S | reverse type 1-like | preferential EFV-site binding |  | O=C1CC(C#CC2CC2)(C(F)(F)F)c2cc(Cl)ccc2N1 (racemic) [rac-8] | 
11 | hyperbolic | type 2 |  | essentially hyperbolic | lower | hyperbolic |  | reverse type 1-like | mainly with the allosteric site for Glu |  | O=C1Nc2c(O)cc(Cl)cc2C(C#CC2(O)CC2)(C(F)(F)F)O1 (racemic) [rac-3] | difference in the apparent spectral Kd versus (S)-EFV ([1]; substrate-free CYP46A1): 2 fold; effect of co-incubation with (S)-EFV on CYP46A1 activation [4]: synergistic CYP46A1 activation; kon lower than that of (S)-EFV [3]: 3 fold; mechanism of binding to substrate-free CYP46A1 [3]: conformational-selection; rates of binding (kobserved) lower than those for (S)-EFV ([3]; substrate-free CYP46A1): ≥ 7 fold; spectral binding at 15–30 μM, stopped-flow [3]: essentially no spectral binding; P450 activation with replacements within the Glu-binding site [6]: largely reduced or abolished; P450 activation with replacements within the EFV-binding site [6]: not significantly affected
12 | hyperbolic | type 1 | lower | bell-shaped | synergistically activated | sigmoidal | S | reverse type 1-like | preferential EFV-site binding |  | CCCC#CC1(C(F)(F)F)OC(=O)Nc2ccc(Cl)cc21 (racemic) [rac-9] | 

Source: PMC7226586 (Journal of Medicinal Chemistry, 2019)
